Data reported in patent US7872018B2, “Compounds and methods for kinase modulation, and indications therefor” (Plexxikon, Inc., priority 2006, dated 2011).

Tests used:
[1] = target: B-Raf V600E (Homo sapiens, UniProt P15056, V600E); assay: B-Raf V600E kinase activity assay; format: biochemical; conditions: under the test conditions employed; read-out: IC50 toward kinase B-Raf V600E
[2] = target: T1, Kit (Homo sapiens, UniProt P10721); assay: c-kit biochemical assay (AlphaScreen or 33P-ATP); conditions: under the test conditions employed; read-out: IC50 toward kinase Kit
T1 construct: P1332.N6 BI PTP KIT M552-K948-X COD; made in house; host or cells: E. coli BL21(DE3)RIL, co-expressed with PTP1B
Procedure: C-kit kinase was at 1 ng per sample.
The c-kit enzyme used in the above assay was either obtained from Cell Signaling Technology (Cat. #7754) or was prepared as follows: A plasmid encoding kit (DNA and encoded protein sequences shown below) was engineered using common polymerase chain reaction (PCR) methods. Complementary DNA cloned from various human tissues were purchased from Invitrogen, and these were used as substrates in the PCR reactions. Specific custom synthetic oligonucleotide primers were designed to initiate the PCR product, and also to provide the appropriate restriction enzyme cleavage sites for ligation with the plasmids. The entire sequence encoding the enzyme was made through a gene synthesis procedure, using custom synthetic oligonucleotides covering the entire coding sequence (Invitrogen, see below).

[3] = target: B-Raf (Homo sapiens, UniProt P15056); assay: B-Raf kinase activity assay; format: biochemical; conditions: under the test conditions employed; read-out: IC50 toward kinase B-Raf
[4] = target: T2, Fms (Homo sapiens, UniProt P07333); assay: Fms biochemical assay (AlphaScreen or 33P-ATP); conditions: under the test conditions employed; read-out: IC50 toward kinase Fms
T2 construct: purchased Upstate Biotech 14-551
Source text: Each sample was at 5% DMSO.

[5] = target: Kdr (Homo sapiens, UniProt P35968); assay: Kdr kinase activity assay; format: biochemical; conditions: under the test conditions employed; read-out: IC50 toward kinase Kdr
[6] = target: HGK (Homo sapiens, UniProt O95819); assay: HGK (MAP4K4) biochemical assay (AlphaScreen); conditions: under the test conditions employed; read-out: IC50 toward kinase HGK
Procedure: Substrate was 10 nM biotin-ERM (T567/T564/T558, Cell Signaling, Inc., cat#1344). MAP4K4 kinase was at 0.5 ng per sample. After incubation of the kinase reaction for 40 min at room temperature, 5 μl of donor beads and protein A acceptor beads (Perkin Elmer Life Science, cat#67606017) at final concentration 1 μg/ml in stop buffer (20 mM Tris, pH 7.4, 200 mM Nacl, 100 mM EDTA, 0.03% BSA) was added, along with Phospho-ERM Antibody (T567/T564/T558, Cell Signaling, Inc., cat#3141) at 1:1000 dilution. […] Phosphorylated substrate results in binding of the antibody which binds to protein A acceptor bead and association of the donor and acceptor beads is such that the signal correlates with kinase activity.

[7] = target: T3, TrkA (Homo sapiens, UniProt P04629); assay: TrkA biochemical assay (AlphaScreen); conditions: under the test conditions employed; read-out: IC50 toward kinase TrkA
T3 construct: purchased Upstate Biotech 14-571
Procedure: Compounds tested were dissolved in DMSO (1 μL) and added to a white 384-well plate (Costar #3705). […] Each sample was at 5% DMSO. The plate was then incubated for 40 minutes at room temperature.

HGK, sequence (O95819 whole entry): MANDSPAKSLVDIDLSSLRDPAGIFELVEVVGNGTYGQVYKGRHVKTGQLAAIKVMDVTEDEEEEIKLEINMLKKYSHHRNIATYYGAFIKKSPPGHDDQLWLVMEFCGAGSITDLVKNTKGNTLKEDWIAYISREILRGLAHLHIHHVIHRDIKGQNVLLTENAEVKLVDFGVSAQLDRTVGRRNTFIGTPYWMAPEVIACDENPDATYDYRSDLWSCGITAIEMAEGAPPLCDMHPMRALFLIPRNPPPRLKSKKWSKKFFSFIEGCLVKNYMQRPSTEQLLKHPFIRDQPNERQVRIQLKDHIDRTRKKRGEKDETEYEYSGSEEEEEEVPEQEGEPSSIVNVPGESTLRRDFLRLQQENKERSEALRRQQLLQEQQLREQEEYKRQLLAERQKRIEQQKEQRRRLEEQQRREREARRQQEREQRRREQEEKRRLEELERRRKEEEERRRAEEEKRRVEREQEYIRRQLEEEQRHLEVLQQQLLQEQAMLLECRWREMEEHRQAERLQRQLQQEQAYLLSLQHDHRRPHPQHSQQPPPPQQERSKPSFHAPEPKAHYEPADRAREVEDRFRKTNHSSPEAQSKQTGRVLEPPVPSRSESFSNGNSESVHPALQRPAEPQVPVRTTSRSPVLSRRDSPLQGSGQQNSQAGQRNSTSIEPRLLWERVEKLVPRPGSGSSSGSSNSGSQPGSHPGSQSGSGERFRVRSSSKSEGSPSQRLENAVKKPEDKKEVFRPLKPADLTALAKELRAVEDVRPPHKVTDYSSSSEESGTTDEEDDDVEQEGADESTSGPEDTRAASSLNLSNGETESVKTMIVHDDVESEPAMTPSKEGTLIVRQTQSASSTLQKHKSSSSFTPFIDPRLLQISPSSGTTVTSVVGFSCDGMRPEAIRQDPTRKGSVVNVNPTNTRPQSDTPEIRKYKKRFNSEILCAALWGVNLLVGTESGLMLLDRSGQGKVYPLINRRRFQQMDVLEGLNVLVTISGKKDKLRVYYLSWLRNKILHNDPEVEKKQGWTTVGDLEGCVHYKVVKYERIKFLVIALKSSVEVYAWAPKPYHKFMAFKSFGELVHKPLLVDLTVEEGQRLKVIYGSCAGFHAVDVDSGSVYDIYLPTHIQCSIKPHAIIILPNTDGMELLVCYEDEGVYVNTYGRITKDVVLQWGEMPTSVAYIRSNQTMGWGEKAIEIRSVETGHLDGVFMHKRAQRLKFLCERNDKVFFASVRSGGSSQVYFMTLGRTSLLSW
T3 sequence (P04629 33-796): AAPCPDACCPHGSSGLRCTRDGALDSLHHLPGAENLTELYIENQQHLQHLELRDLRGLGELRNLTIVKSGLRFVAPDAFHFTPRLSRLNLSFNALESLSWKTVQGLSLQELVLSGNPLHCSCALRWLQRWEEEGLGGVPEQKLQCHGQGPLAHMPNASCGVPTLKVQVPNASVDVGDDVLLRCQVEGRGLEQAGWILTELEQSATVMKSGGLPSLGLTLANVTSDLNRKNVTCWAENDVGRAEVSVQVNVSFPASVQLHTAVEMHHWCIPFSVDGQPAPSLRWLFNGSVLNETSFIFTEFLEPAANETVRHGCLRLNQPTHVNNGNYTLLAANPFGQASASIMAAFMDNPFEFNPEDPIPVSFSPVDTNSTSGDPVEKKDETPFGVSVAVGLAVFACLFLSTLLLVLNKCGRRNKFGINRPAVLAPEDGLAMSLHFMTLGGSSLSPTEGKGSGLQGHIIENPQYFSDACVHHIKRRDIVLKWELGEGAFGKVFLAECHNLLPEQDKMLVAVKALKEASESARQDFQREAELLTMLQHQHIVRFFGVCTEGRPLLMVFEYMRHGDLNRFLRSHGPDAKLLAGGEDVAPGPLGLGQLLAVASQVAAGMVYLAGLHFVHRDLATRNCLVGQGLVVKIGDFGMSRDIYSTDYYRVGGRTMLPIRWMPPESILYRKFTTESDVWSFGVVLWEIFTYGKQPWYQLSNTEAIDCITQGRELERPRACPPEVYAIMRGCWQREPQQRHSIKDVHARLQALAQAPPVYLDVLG
Kdr, sequence (P35968 20-1356): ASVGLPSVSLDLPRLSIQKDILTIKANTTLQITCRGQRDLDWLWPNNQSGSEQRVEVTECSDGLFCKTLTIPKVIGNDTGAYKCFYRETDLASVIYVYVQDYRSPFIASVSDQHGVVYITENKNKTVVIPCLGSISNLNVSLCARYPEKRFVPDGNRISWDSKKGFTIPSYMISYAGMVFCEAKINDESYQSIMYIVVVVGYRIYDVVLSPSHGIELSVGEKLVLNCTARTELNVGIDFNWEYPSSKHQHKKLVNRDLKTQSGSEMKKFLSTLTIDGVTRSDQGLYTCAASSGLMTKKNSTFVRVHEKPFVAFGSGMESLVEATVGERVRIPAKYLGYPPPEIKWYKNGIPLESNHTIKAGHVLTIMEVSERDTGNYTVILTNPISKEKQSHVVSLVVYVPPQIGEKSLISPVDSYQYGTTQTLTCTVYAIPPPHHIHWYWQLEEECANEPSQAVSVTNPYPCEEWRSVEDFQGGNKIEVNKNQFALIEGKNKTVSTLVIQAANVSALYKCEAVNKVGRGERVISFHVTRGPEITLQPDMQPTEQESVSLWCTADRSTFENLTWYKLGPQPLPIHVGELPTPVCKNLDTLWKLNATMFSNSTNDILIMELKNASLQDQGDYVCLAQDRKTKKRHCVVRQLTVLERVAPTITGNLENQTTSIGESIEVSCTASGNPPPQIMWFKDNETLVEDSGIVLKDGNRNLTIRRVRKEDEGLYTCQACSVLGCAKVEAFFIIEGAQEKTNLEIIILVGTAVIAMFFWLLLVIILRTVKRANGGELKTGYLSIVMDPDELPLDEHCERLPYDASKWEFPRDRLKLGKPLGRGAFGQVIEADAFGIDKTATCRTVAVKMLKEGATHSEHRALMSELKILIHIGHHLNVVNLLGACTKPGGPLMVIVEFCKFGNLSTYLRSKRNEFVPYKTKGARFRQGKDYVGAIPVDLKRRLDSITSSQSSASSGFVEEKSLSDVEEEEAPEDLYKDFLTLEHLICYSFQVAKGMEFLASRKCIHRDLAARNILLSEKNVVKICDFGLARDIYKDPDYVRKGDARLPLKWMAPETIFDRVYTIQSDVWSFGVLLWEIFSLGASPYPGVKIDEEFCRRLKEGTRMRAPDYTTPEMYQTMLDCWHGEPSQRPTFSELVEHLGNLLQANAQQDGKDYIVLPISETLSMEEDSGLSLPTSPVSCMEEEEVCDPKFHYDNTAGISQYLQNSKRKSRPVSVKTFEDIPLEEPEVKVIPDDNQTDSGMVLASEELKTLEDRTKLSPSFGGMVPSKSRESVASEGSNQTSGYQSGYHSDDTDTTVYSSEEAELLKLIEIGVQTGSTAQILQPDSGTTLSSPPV
T2 sequence (P07333 20-972): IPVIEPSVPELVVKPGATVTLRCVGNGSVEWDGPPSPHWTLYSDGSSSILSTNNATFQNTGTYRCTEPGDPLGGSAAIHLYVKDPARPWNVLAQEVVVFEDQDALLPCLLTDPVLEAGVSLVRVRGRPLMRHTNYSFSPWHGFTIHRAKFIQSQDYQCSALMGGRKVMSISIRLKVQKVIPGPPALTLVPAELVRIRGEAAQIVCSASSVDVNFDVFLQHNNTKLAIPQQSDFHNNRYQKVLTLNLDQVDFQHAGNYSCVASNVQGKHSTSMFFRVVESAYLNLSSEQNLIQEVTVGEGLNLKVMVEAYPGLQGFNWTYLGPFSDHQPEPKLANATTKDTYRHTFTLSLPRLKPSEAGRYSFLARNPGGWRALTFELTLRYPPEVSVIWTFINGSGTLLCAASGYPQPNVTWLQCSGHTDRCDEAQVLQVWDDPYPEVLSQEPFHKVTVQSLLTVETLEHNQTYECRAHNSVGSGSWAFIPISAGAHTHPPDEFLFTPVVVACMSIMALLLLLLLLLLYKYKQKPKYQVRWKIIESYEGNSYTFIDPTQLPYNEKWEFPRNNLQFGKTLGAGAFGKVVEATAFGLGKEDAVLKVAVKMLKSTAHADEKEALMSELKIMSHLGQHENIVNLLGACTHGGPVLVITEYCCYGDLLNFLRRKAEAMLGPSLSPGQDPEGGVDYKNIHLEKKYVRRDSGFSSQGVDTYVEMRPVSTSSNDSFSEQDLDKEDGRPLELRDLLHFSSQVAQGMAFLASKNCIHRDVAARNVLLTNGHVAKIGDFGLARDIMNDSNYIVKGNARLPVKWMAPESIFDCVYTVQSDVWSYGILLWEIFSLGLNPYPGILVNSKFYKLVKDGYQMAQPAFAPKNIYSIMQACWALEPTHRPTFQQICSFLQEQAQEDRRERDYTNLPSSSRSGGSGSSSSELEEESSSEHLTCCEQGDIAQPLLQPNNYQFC
B-Raf V600E, sequence (P15056 whole entry V600E): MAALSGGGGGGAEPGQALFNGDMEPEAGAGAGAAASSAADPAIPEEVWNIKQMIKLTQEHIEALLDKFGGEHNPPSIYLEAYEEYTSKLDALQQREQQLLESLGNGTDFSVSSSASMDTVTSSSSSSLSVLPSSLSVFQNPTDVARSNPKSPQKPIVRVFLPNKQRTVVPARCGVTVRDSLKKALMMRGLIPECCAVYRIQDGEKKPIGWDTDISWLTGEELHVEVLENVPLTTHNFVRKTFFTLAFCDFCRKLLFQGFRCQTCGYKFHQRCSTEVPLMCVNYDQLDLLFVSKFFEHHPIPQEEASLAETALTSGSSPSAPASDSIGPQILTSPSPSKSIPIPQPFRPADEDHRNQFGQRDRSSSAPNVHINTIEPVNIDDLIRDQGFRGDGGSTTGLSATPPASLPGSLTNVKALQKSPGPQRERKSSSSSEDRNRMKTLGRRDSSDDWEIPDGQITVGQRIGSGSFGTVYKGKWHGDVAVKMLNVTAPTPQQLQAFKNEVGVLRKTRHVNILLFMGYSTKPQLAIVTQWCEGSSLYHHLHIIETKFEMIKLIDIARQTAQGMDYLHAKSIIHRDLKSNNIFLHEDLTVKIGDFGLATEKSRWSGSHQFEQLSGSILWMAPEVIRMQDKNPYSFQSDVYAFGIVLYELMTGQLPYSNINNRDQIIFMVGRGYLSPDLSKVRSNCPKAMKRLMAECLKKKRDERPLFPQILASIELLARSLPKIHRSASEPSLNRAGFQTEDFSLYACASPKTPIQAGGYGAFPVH
B-Raf, sequence (P15056 whole entry): as the sequence (P15056 whole entry V600E) above, with E600V counted along it

Structure (SMILES)	IC50 [1]	IC50 [2]	IC50 [3]	IC50 [4]	IC50 [5]	IC50 [6]	IC50 [7]
O=C(c1c(F)ccc(OCc2ccccc2)c1F)c1c[nH]c2ncc(Cl)cc12 [P-1825, (3-Benzyloxy-2,6-difluoro-phenyl)-(5-chloro-1H-pyrrolo[2,3-b]pyridin-3-yl)-methanone]	–	–	≤ 10 µM	–	–	–	–
COCCOc1ccc(F)c(Cc2c[nH]c3ncccc23)c1Cl [P-2158, 3-[2-Chloro-6-fluoro-3-(2-methoxy-ethoxy)-benzyl]-1H-pyrrolo[2,3-b]pyridine]	–	≤ 10 µM	–	≤ 10 µM	≤ 10 µM	–	–
COc1cc(Cc2c[nH]c3ncc(Cl)cc23)c(Cl)cc1OCc1ccc(Cl)cc1F [P-2167, 5-Chloro-3-[2-chloro-4-(4-chloro-2-fluoro-benzyloxy)-5-methoxy-benzyl]-1H-pyrrolo[2,3-b]pyridine]	–	≤ 10 µM	–	≤ 10 µM	≤ 10 µM	–	–
COc1cc(Cc2c[nH]c3ncc(Cl)cc23)c(F)cc1OCc1nc2cc(S(=O)(=O)N(C)C)ccc2[nH]1 [P-2173, 2-[4-(5-Chloro-1H-pyrrolo[2,3-b]pyridin-3-ylmethyl)-5-fluoro-2-methoxy-phenoxymethyl]-1H-benzoimidazole-5-sulfonic acid dimethylamide]	–	≤ 10 µM	≤ 10 µM	≤ 10 µM	–	≤ 10 µM	≤ 10 µM
COCCOc1cnc2[nH]cc(Cc3cc(F)c(OCc4nc5ccccc5[nH]4)cc3F)c2c1 [P-2176, 2-{2,5-Difluoro-4-[5-(2-methoxy-ethoxy)-1H-pyrrolo[2,3-b]pyridin-3-ylmethyl]-phenoxymethyl}-1H-benzoimidazole]	–	≤ 10 µM	–	≤ 10 µM	≤ 10 µM	≤ 10 µM	≤ 10 µM

Further lines, results first:

IC50 [1]	IC50 [2]	IC50 [3]	IC50 [4]	IC50 [5]	IC50 [6]	IC50 [7]	Structure (SMILES)
≤ 10 µM	≤ 10 µM	≤ 10 µM	≤ 10 µM	–	–	–	COc1cc(Cc2c[nH]c3ncccc23)ccc1OCc1ccc(Cl)cc1Cl [P-1568, 3-[4-(2,4-Dichloro-benzyloxy)-3-methoxy-benzyl]-1H-pyrrolo[2,3-b]pyridine]
–	–	≤ 10 µM	≤ 10 µM	–	–	–	COc1cc(Cc2c[nH]c3ncccc23)cc(Cl)c1OCc1ccc(Cl)cc1 [P-1616, 3-[3-Chloro-4-(4-chloro-benzyloxy)-5-methoxy-benzyl]-1H-pyrrolo[2,3-b]pyridine]
≤ 10 µM	–	≤ 10 µM	≤ 10 µM	–	–	–	COc1cc(Cc2c[nH]c3ncccc23)ccc1OCc1ccc(C(F)(F)F)cc1 [P-1721, 3-[3-Methoxy-4-(4-trifluoromethyl-benzyloxy)-benzyl]-1H-pyrrolo[2,3-b]pyridine]
≤ 10 µM	–	≤ 10 µM	≤ 10 µM	–	–	–	Clc1ccc(COc2ccc(Cl)c(Cc3c[nH]c4ncccc34)c2Cl)cc1 [P-1768, 3-[2,6-Dichloro-3-(4-chloro-benzyloxy)-benzyl]-1H-pyrrolo[2,3-h]pyridine]
≤ 10 µM	–	≤ 10 µM	≤ 10 µM	–	–	–	O=C(c1c(Cl)ccc(OCc2ccc(Cl)cc2)c1Cl)c1c[nH]c2ncccc12 [P-1769, [2,6-Dichloro-3-(4-chloro-benzyloxy)-phenyl]-(1-pyrrolo[2,3-b]pyridin-3-yl)methanone]
≤ 10 µM	–	≤ 10 µM	≤ 10 µM	–	–	–	O=C(c1c(F)ccc(OCc2ccccc2)c1F)c1c[nH]c2ncccc12 [P-1802, (3-Benzyloxy-2,6-difluoro-phenyl)-(1H-pyrrolo[2,3-b]pyridin-3-yl)-methanone]
–	≤ 10 µM	–	≤ 10 µM	≤ 10 µM	≤ 10 µM	–	Fc1cc(OCc2nc3ccccc3[nH]2)cc(F)c1Cc1c[nH]c2ncc(Cl)cc12 [P-2105, 2-[4-(5-Chloro-1H-pyrrolo[2,3-b]pyridin-3-ylmethyl)-3,5-difluoro-phenoxymethyl]-1H-benzoimidazole]
–	≤ 10 µM	–	≤ 10 µM	≤ 10 µM	≤ 10 µM	≤ 10 µM	COc1cnc2[nH]cc(Cc3cc(F)c(OCc4nc5ccccc5[nH]4)cc3Cl)c2c1 [P-2114, 2-[5-Chloro-2-fluoro-4-(5-methoxy-1H-pyrrolo[2,3-b]pyridin-3-ylmethyl)-phenoxymethyl]-1H-benzoimidazole]
